Source: ChEMBL document CHEMBL1201862, “PubChem BioAssay data set” (2004)
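Following 48 hours of exposure in 96-well plates, responses at five concentrations were used to interpolate endpoints linearly. GI50: concentration for 50% inhibition of growth.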 Calls of active or inactive are those of the source. Cut-off read from the data, not from the text of the source: active = GI50 up to about 1.1 µM and inactive = higher. Residues, ends and D or L forms follow the SMILES beside them.

Legend:
Assay in all cases: DTP human tumour cell line panel, 48 h
CCRF-CEM = tested on: CCRF-CEM
DU-145 = tested on: DU-145
786-0 = tested on: 786-0
MCF7 = tested on: MCF7
IGROV-1 = tested on: IGROV-1
HCC 2998 = tested on: HCC 2998
NCI-H226 = tested on: NCI-H226
UACC-62 = tested on: UACC-62
M14 = tested on: M14
OVCAR-4 = tested on: OVCAR-4
SNB-75 = tested on: SNB-75
EKVX = tested on: EKVX
NCI-H460 = tested on: NCI-H460
MOLT-4 = tested on: MOLT-4
HOP-62 = tested on: HOP-62
TK-10 = tested on: TK-10
OVCAR-8 = tested on: OVCAR-8
HCT-15 = tested on: HCT-15
MDA-N = tested on: MDA-N

SMILES | GI50 (CCRF-CEM) | GI50 (DU-145) | GI50 (786-0) | GI50 (MCF7) | GI50 (IGROV-1) | GI50 (HCC 2998) | GI50 (NCI-H226) | GI50 (UACC-62) | GI50 (M14) | GI50 (OVCAR-4) | GI50 (SNB-75) | GI50 (EKVX) | GI50 (NCI-H460) | GI50 (MOLT-4) | GI50 (HOP-62) | GI50 (TK-10) | GI50 (OVCAR-8) | GI50 (HCT-15) [µM] | GI50 (MDA-N)
CCOc1ccc(NCC2CC/C(=C\c3ccc(O)cc3)C2=O)cc1 (stereo not drawn) | 5.87 µM (inactive) | 25.7 µM (inactive) | 6.65 µM (inactive) | 3.61 µM (inactive) | 18.9 µM (inactive) | 18.1 µM (inactive) | 38.2 µM (inactive) | 19.7 µM (inactive) | 18.1 µM (inactive) | 17.2 µM (inactive) | 14.5 µM (inactive) | 20.5 µM (inactive) | 23.2 µM (inactive) | 4.17 µM (inactive) | 37.8 µM (inactive) | 12.7 µM (inactive) | 17.9 µM (inactive) | 6.9 | –
N#CNCC(COCc1ccccc1)c1ccccc1 (stereo not drawn) | > 100 µM (inactive) | – | > 100 µM (inactive) | – | > 100 µM (inactive) | > 100 µM (inactive) | 98.4 µM (inactive) | > 100 µM (inactive) | > 100 µM (inactive) | > 100 µM (inactive) | 41.9 µM (inactive) | > 100 µM (inactive) | > 100 µM (inactive) | 71.1 µM (inactive) | > 100 µM (inactive) | > 100 µM (inactive) | > 100 µM (inactive) | 86.1 | –
COc1ccc(-c2cc(-c3ccccc3)nc(N)n2)c(O)c1 | 4.59 µM (inactive) | – | > 100 µM (inactive) | 0.984 µM (active) | 10.6 µM (inactive) | > 100 µM (inactive) | > 100 µM (inactive) | > 28.9 µM (inactive) | > 27.3 µM (inactive) | > 74.6 µM (inactive) | 28.8 µM (inactive) | > 24.9 µM (inactive) | 5.04 µM (inactive) | 4.16 µM (inactive) | > 49.5 µM (inactive) | > 100 µM (inactive) | 8.69 µM (inactive) | 6.03 | 4.55 µM (inactive)
C/C(=N\NC(N)=S)c1ccc2c(c1)Sc1ccccc1O2 | 3.67 µM (inactive) | 28.1 µM (inactive) | 3.18 µM (inactive) | – | – | 1.66 µM (inactive) | 9.23 µM (inactive) | 2.42 µM (inactive) | 2.4 µM (inactive) | 2.47 µM (inactive) | 2.53 µM (inactive) | 1.24 µM (inactive) | 2.83 µM (inactive) | 2.54 µM (inactive) | 3.46 µM (inactive) | 3.73 µM (inactive) | 2.48 µM (inactive) | 0.593 | 0.373 µM (active)
CCC(C)C(NC(=O)C(CC(C)C)NC(=O)CNC(=O)C(NC(=O)C1CCCN1C(=O)C(CC(C)C)NC(=O)C(N)Cc1ccccc1)C(C)CC)C(=O)NC(CC(C)C)C(N)=O (stereo not drawn) (H-FLPIGLIL-NH2; configuration not given here) | > 75 µM (inactive) | > 75 µM (inactive) | > 75 µM (inactive) | > 75 µM (inactive) | > 75 µM (inactive) | – | > 75 µM (inactive) | > 75 µM (inactive) | > 75 µM (inactive) | > 75 µM (inactive) | – | > 75 µM (inactive) | – | > 75 µM (inactive) | > 75 µM (inactive) | > 75 µM (inactive) | > 75 µM (inactive) | > 75 | > 75 µM (inactive)
COc1cc2c(cc1OC)C1C3CCCCC3CCN1CC2 (stereo not drawn) | > 100 µM (inactive) | > 100 µM (inactive) | 88.5 µM (inactive) | 0.36 µM (active) | > 100 µM (inactive) | > 100 µM (inactive) | 88.1 µM (inactive) | > 100 µM (inactive) | – | > 100 µM (inactive) | 18.3 µM (inactive) | > 100 µM (inactive) | > 100 µM (inactive) | > 100 µM (inactive) | > 100 µM (inactive) | > 100 µM (inactive) | > 100 µM (inactive) | > 100 | –
CC1=C(N2CC2)C(=O)C(CO)=C(N2CC2)C1=O | < 0.01 µM (active) | < 0.01 µM (active) | < 0.0321 µM (active) | 0.0106 µM (active) | 0.0112 µM (active) | 0.0378 µM (active) | 0.0506 µM (active) | 0.022 µM (active) | 0.0111 µM (active) | 0.103 µM (active) | 0.031 µM (active) | 0.254 µM (active) | < 0.01 µM (active) | 0.0129 µM (active) | 0.0144 µM (active) | 0.0258 µM (active) | – | 0.0151 | –
Cc1cc(Cl)nc(NC(=O)CSc2ccc(Cl)cc2)n1 | > 100 µM (inactive) | > 100 µM (inactive) | > 100 µM (inactive) | – | > 100 µM (inactive) | > 100 µM (inactive) | 22.1 µM (inactive) | > 100 µM (inactive) | > 100 µM (inactive) | – | – | > 100 µM (inactive) | > 100 µM (inactive) | > 100 µM (inactive) | 79.1 µM (inactive) | > 100 µM (inactive) | > 100 µM (inactive) | > 100 | > 100 µM (inactive)
O=C([O-])Cc1ccccc1.[Na+] [SODIUM PHENYLACETATE] | 671 µM (inactive) | – | 1070 µM (inactive) | > 2000 µM (inactive) | 597 µM (inactive) | 1210 µM (inactive) | 447 µM (inactive) | 1370 µM (inactive) | > 2000 µM (inactive) | 255 µM (inactive) | 776 µM (inactive) | > 2000 µM (inactive) | 342 µM (inactive) | 289 µM (inactive) | 200 µM (inactive) | 1130 µM (inactive) | 611 µM (inactive) | 703 | 10.6 µM (inactive)
O=C(c1ccccc1)c1c2ccccn2c2cccc[n+]12 | > 100 µM (inactive) | > 100 µM (inactive) | > 100 µM (inactive) | > 100 µM (inactive) | > 100 µM (inactive) | > 100 µM (inactive) | > 100 µM (inactive) | > 100 µM (inactive) | > 100 µM (inactive) | > 100 µM (inactive) | > 100 µM (inactive) | > 100 µM (inactive) | > 100 µM (inactive) | > 100 µM (inactive) | > 100 µM (inactive) | > 100 µM (inactive) | 88.5 µM (inactive) | > 100 | –
COC(=O)C(Cc1c[nH]c2ccccc12)NC(=O)C(Cc1c[nH]cn1)NC(=O)C1CCC(=O)N1C(=O)OCc1ccccc1 (stereo not drawn) | > 100 µM (inactive) | – | > 100 µM (inactive) | > 100 µM (inactive) | > 100 µM (inactive) | > 100 µM (inactive) | > 100 µM (inactive) | > 100 µM (inactive) | > 100 µM (inactive) | – | > 100 µM (inactive) | > 100 µM (inactive) | > 100 µM (inactive) | > 100 µM (inactive) | > 100 µM (inactive) | > 100 µM (inactive) | > 100 µM (inactive) | – | > 100 µM (inactive)
Cc1cc2cc3c(cc2c(-c2ccc(N)cc2)n1)OCO3 | 28.5 µM (inactive) | 49.9 µM (inactive) | 25.6 µM (inactive) | 7.74 µM (inactive) | 14.5 µM (inactive) | – | – | 30.8 µM (inactive) | 81.8 µM (inactive) | – | – | 35.4 µM (inactive) | 21.3 µM (inactive) | 13.8 µM (inactive) | 57.1 µM (inactive) | 39.9 µM (inactive) | 81.7 µM (inactive) | 53 | 23.3 µM (inactive)
COC(=O)Cc1c(C2C(CC(=O)OC)c3ccccc3N2C2OC(CO)C(O)C(O)C2O)[nH]c2ccccc12 (stereo not drawn) | > 100 µM (inactive) | > 100 µM (inactive) | – | – | > 100 µM (inactive) | > 100 µM (inactive) | – | > 100 µM (inactive) | > 100 µM (inactive) | > 100 µM (inactive) | > 100 µM (inactive) | > 100 µM (inactive) | > 100 µM (inactive) | > 100 µM (inactive) | > 100 µM (inactive) | > 100 µM (inactive) | – | > 100 | > 100 µM (inactive)
O=Cc1cc(O)c(O)c(/C=N/n2c3ccccc3c3ccccc32)c1 | 1.58 µM (inactive) | 11.4 µM (inactive) | 4.41 µM (inactive) | 0.64 µM (active) | – | 11.7 µM (inactive) | 12.6 µM (inactive) | 7.83 µM (inactive) | 6.1 µM (inactive) | 2.17 µM (inactive) | 2.65 µM (inactive) | 18.9 µM (inactive) | 6.03 µM (inactive) | 2.54 µM (inactive) | 11.2 µM (inactive) | 13.4 µM (inactive) | 2.63 µM (inactive) | 2.18 | –
Cc1c(/C=N/NC(=S)Nc2ccccc2)c(=O)n(-c2ccccc2)n1C | 48 µM (inactive) | > 100 µM (inactive) | > 100 µM (inactive) | > 100 µM (inactive) | > 100 µM (inactive) | > 100 µM (inactive) | > 100 µM (inactive) | > 100 µM (inactive) | > 100 µM (inactive) | > 100 µM (inactive) | > 100 µM (inactive) | > 100 µM (inactive) | > 100 µM (inactive) | > 100 µM (inactive) | > 100 µM (inactive) | > 100 µM (inactive) | > 100 µM (inactive) | 47.5 | –
CCCc1c(O)nc(Nc2nc3ccccc3[nH]2)[nH]c1=O | 86.5 µM (inactive) | > 100 µM (inactive) | > 100 µM (inactive) | – | > 100 µM (inactive) | – | > 100 µM (inactive) | > 100 µM (inactive) | > 100 µM (inactive) | > 100 µM (inactive) | > 100 µM (inactive) | > 100 µM (inactive) | > 100 µM (inactive) | > 100 µM (inactive) | – | > 100 µM (inactive) | > 100 µM (inactive) | > 100 | > 100 µM (inactive)
